Bounds are passed on as bounds.

We go through eleven compounds from patent publication US20110059962A1, “TRANSCRIPTION FACTOR MODULATING COMPOUNDS AND METHODS OF USE THEREOF” (priority 2009, published 2011).

The target of one assay is LcrF (VirF) (Yersinia pestis, UniProt P28808). In words: biochemical. The assay is classed as binding, Y. pseudotuberculosis.
The next assay deals with T1, SoxS (Escherichia coli, UniProt P0A9E2).
T1 construct: made in house; host or cells: E. coli
T1 sequence (P0A9E2 1-107): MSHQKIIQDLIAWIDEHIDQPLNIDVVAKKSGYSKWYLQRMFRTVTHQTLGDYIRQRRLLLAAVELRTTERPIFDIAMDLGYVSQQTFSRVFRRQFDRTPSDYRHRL
In words: Inhibition of SoxS-DNA binding, cell-free chemiluminescence assay. Set-up: species or system E. coli.

The subject of assay [1] is Y. pseudotuberculosis cytotoxicity toward J774 cells. The assay is described as follows: microbe, parasite or virus in culture. The conditions noted are these: Yersinia pseudotuberculosis, J774, read-out: % Cytotoxicity.
Assay [2] deals with P. aeruginosa cytotoxicity toward J774 cells. The assay is described as follows: Inhibition of P. aeruginosa cytotoxicity toward J774 macrophage-like cells, whole cell LDH release assay (CytoTox 96). Further details: dose or concentration left out as unconfirmed. To be noted: Pseudomonas aeruginosa, J774, read-out: % Cytotoxicity.
In the next assay the target is T2, ExsA (Pseudomonas aeruginosa, UniProt P26993).
T2 construct: made in house
T2 sequence (P26993 1-278): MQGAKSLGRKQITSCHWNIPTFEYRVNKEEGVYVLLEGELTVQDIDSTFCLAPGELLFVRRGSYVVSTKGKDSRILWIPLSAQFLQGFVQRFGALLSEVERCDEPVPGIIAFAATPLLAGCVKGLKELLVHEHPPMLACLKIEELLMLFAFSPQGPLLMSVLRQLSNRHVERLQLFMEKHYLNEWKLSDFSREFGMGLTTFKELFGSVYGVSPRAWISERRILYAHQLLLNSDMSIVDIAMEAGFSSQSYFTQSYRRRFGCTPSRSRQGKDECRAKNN
The assay is described as follows: Inhibition of ExsA-DNA binding, cell-free chemiluminescence assay. Set-up: species or system P. aeruginosa.

LcrF (VirF), sequence (P28808 whole entry, looked up): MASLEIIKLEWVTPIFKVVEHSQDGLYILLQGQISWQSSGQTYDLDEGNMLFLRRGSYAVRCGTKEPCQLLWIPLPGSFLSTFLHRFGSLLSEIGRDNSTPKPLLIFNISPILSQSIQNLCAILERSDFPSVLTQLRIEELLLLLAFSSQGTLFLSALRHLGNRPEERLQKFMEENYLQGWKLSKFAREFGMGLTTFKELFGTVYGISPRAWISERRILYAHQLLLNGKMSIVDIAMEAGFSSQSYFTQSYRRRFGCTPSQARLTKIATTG

As for `N#Cc1ccc2nc(-c3ccc(NC(=O)c4ccc(-n5cccn5)nc4)cc3)n(O)c2c1` [Compound M, N-[4-(6-Cyano-1-hydroxy-1H-benzoimidazol-2-yl)-phenyl]-6-pyrazol-1-yl-nicotinamide], the half-maximal inhibitory concentration (IC50) against LcrF (VirF) and on SoxS was over 50 µM each time. For the same compound, the activity at 50 µg/mL in assay [1] is under 75%. Moreover, the activity in assay [2] was 75 to 99%.
Take `CSc1ccc(/C=C/C(=O)Nc2ccc(-c3nc4ccc(C#N)cc4n3O)cc2)cn1` [Compound H, (E)-N-[4-(6-Cyano-1-hydroxy-1H-benzoimidazol-2-yl)-phenyl]-3-(6-methylsulfanyl-pyridin-3-yl)-acrylamide]: the IC50 (usually the point on the concentration scale where inhibition reaches its midpoint) on LcrF (VirF) is 25 to 50 µM; at ExsA, under 10 µM; on SoxS, over 50 µM. The activity at 50 µg/mL in assay [1] was under 75%. The activity in assay [2] is under 75%.
Turning to `CSc1ccc(/C=C/C(=O)Nc2ccc(-c3nc4ccc(C#N)cc4n3O)cc2)cc1` [Compound D, (E)-N-[4-(6-Cyano-1-hydroxy-1H-benzoimidazol-2-yl)-phenyl]-3-(4-methylsulfanyl-phenyl)-acrylamide], the 50% inhibitory concentration (IC50) against LcrF (VirF) is 25 to 50 µM; on ExsA it was under 10 µM; on SoxS, 10 to 25 µM. Moreover, in assay [1], the activity at 50 µg/mL was in the range of 75 to 99%. Moreover, in assay [2], the activity lay within 75 to 99%.
In the case of `CSc1ccc(/C=C/C(=O)Nc2ccc(-c3nc4ccc([N+](=O)[O-])cc4n3O)cc2)cc1` [C], the IC50 lay in the range of 10 to 25 µM against LcrF (VirF), 10 to 25 µM on ExsA and 25 to 50 µM on SoxS. Also, in assay [1], the activity at 50 µg/mL lay within 75 to 99%. Further, the activity in assay [2] was in the range of 75 to 99%.
For the compound `N#Cc1ccc2nc(-c3ccc(NC(=O)c4ccc(N5CCOCC5)nc4)cc3)n(O)c2c1` [Compound P, N-[4-(6-Cyano-1-hydroxy-1H-benzoimidazol-2-yl)-phenyl]-6-morpholin-4-yl-nicotinamide], the IC50 was over 50 µM at LcrF (VirF), under 10 µM on ExsA and over 50 µM on SoxS. The activity at 50 µg/mL in assay [1] lay within 75 to 99%. Besides, the activity in assay [2] lay in the range of 75 to 99%.
Consider `O=C(Nc1ccc(-c2nc3ccc([N+](=O)[O-])cc3n2O)cc1)c1ccc(-n2cccn2)nc1` [Compound I], for which the IC50 at LcrF (VirF) and at ExsA was 25 to 50 µM in each case. Moreover, the activity at 50 µg/mL in assay [1] is under 75%. Also, in assay [2], the activity lay in the range of 75 to 99%.
In the case of `CC(=O)c1ccc(/C=C/C(=O)Nc2ccc(-c3nc4ccc(C#N)cc4n3O)cc2)cn1` [Compound A, (E)-3-(6-Acetyl-pyridin-3-yl)-N-[4-(6-cyano-1-hydroxy-1H-benzoimidazol-2-yl)-phenyl]-acrylamide], the concentration for half-maximal inhibition (IC50) was 25 to 50 µM on LcrF (VirF) and over 50 µM on ExsA. Besides, the activity at 50 µg/mL in assay [1] was under 75%. In assay [2], the activity was under 75%.
As for `CN1CCN(c2ccc(C(=O)Nc3ccc(-c4nc5ccc([N+](=O)[O-])cc5n4O)cc3)cn2)CC1` [O], the IC50 on LcrF (VirF) and on ExsA was over 50 µM in each case. The activity at 50 µg/mL in assay [1] fell in the range of 75 to 99%. For the same compound, the activity in assay [2] lay in the range of 75 to 99%.
For the compound `CC(=O)c1ccc(/C=C/C(=O)Nc2ccc(-c3nc4ccc(Cl)cc4n3O)cc2)cc1` [B], the IC50 on LcrF (VirF) was over 50 µM; on ExsA it was 10 to 25 µM. In addition, the activity at 50 µg/mL in assay [1] lay within 75 to 99%. The activity in assay [2] fell in the range of 75 to 99%.
With `CSc1ccc(/C=C/C(=O)Nc2ccc(-c3nc4ccc([N+](=O)[O-])cc4n3O)cc2)cn1` [G], the IC50 was 10 to 25 µM against LcrF (VirF), under 10 µM at ExsA and over 50 µM at SoxS. The activity at 50 µg/mL in assay [1] is under 75%. In assay [2], the activity was under 75%.
With `CN(C)c1ccc(C(=O)Nc2ccc(-c3nc4ccc([N+](=O)[O-])cc4n3O)cc2)cn1` [Y], the IC50 against LcrF (VirF) and on ExsA was 10 to 25 µM in each case. In addition, the activity at 50 µg/mL in assay [1] is under 75%. Moreover, the activity in assay [2] was 75 to 99%.
